“Also recorded” adds a separate entry of the source.
Legend:
[1] = target: T1, ovine COX-2 (Ovis aries, UniProt P79208); test: In vitro COX-2 inhibition assay (EIA kit, Cayman); conditions: for IC50: IC50 COX-2, ovine COX-2, mean of two determinations; for SI, COX-2 selectivity index (COX-1 IC50/COX-2 IC50): ovine enzymes
T1 sequence (P79208 17-603): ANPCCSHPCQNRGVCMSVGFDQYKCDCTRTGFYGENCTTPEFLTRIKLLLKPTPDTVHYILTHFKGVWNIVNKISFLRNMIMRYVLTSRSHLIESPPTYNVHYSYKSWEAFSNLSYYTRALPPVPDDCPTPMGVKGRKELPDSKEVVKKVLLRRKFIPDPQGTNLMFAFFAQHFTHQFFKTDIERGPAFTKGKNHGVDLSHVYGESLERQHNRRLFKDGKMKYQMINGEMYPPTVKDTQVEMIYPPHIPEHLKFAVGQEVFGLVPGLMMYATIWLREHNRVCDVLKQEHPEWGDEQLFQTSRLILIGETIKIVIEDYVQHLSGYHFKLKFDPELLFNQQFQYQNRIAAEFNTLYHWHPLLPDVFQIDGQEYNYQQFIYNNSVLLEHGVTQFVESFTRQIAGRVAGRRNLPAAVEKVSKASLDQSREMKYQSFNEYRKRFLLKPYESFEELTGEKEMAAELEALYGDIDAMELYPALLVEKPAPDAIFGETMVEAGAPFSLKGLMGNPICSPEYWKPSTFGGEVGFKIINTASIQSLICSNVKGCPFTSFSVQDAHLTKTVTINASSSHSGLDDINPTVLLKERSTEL
Protocol: (§1) The peroxidase activity of cyclooxygenase enzyme isoforms was measured using the COX activity assay kit. The ability of the test compounds to inhibit both ovine COX-1 and COX-2 enzymes was explored in vitro using a colorimetric enzyme immunoassay (EIA) kit. The appearance of oxidised N,N,N′,N′-tetramethyl-p-phenylenediamine (TMPD) was monitored at 590 nm. The kit includes isozyme-specific inhibitors for distinguishing COX-2 activity from that of COX-1.

[2] = tested on: abdominal writhings; test: Acetic acid-induced writhing test (peripheral analgesic activity); conditions: 10 mg/kg oral, mice, 0.6% acetic acid i.p.
Description: Pain was induced by intraperitoneal injection of acetic acid, then counting the number of abdominal writhings.

[3] = tested on: carrageenan-induced paw oedema; test: Carrageenan-induced rat paw oedema; assay type: in vivo; conditions: 50 mg/kg oral; for %Inhibition of paw oedema, 1h / Paw thickness change mean ± SEM, 1h: 1 h after carrageenan; for Paw thickness change mean ± SEM, 1h / Paw thickness change mean ± SEM, 3h / Paw thickness change mean ± SEM, 5h: n = 4; for %Inhibition of paw oedema, 3h / Paw thickness change mean ± SEM, 3h: 3 h after carrageenan; for %Inhibition of paw oedema, 5h / Paw thickness change mean ± SEM, 5h: 5 h after carrageenan
Protocol: Female wister rats (150-200 g) were used in this study. The animals were kept at controlled conditions (temperature 23 ± 2 °C, humidity 60 ± 10%) and a 12/12-h light/dark cycle with access to food and water. All procedures relating to animal care and treatments were performed according to protocols approved by the Research Ethical Committee of Faculty of Pharmacy Beni-Suef University (2014-Beni-Suef, Egypt). The anti-inflammatory activity of the synthesised compounds was determined in vivo by […]-induced paw oedema method in rats[49]. Rats were divided into 21 groups of four animals each, and then, they were fasted overnight with free access to water before the experiment. Before any drug administration, thickness of the left hind paw of each rat was measured in millimetres. Group 1 served as a control and administered the vehicle (2.5% Tween 80).

[4] = target: T2, ovine COX-1 (Ovis aries, UniProt P05979); test: In vitro COX-1 inhibition assay (EIA kit, Cayman)
T2 sequence (P05979 25-600): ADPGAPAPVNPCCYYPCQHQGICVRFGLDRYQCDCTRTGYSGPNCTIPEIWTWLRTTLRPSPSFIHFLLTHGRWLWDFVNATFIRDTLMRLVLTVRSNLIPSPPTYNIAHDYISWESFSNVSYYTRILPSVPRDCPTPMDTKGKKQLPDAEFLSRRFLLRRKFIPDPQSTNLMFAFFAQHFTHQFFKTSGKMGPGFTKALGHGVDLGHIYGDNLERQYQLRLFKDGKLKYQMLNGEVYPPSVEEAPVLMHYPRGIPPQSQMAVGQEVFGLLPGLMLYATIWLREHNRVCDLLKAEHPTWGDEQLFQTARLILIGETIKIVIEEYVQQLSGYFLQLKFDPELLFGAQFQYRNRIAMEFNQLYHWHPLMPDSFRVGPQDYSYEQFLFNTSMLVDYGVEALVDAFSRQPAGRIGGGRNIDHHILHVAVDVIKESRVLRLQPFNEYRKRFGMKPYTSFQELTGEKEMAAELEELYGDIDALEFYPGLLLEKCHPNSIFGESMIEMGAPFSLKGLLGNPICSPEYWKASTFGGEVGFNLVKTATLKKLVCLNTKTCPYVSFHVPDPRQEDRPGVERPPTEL
Protocol: as §1

[5] = tested on: rat's gastric tissue; test: Histopathological investigation of stomach; assay type: in vivo; conditions: haematoxylin and eosin, after ulcerogenic liability dosing
Protocol: Whole rats stomach were collected, selected stomach samples from each rat were fixed in 10% neutral buffered formalin for 48 h and routinely processed for paraffin embedding. 5 μm Thickness sections were obtained then stained with haematoxylin and eosin for histopathological evaluation.

[6] = tested on: gastric mucosa (ulcer number, ulcer index); test: Ulcerogenic liability; assay type: in vivo, rat; conditions: 50 mg/kg oral, three successive days, rats; for Ulcer index: sum of % incidence, average severity and average number of ulcers
Protocol: Female wister rats (150–200 g) were used in this study. The animals were kept at controlled conditions (temperature 23 ± 2 °C, humidity 60 ± 10%) and a 12/12-h light/dark cycle with access to food and water. All procedures relating to animal care and treatments were performed according to protocols approved by the Research Ethical Committee of Faculty of Pharmacy Beni-Suef University (2014-Beni-Suef, Egypt).
[…]. Forty-eight rats were used in this study, divided into 12 groups and fasted for 18 h before drug administration. The control group received the vehicle (2.5% Tween 80). Other groups received test compounds, celecoxib or indomethacin at a dose of 50 mg/kg, then animals were fed after 2 h. Rats were given the specified dose orally for three successive days. Rats were sacrificed after 2 h of the last dose, then the stomach of each rat was removed and opened along the greater curvature for determination of the ulcer number and ulcer index according to the reported method.

[7] = tested on: latency time of pain response; test: Hot plate method (central analgesic activity); assay type: in vivo; conditions: 10 mg/kg oral, mice, hot plate 55 °C, after 60 min
Protocol: This method was used to evaluate the central analgesic activity by determination of the delay in the latency time of pain response. […] After 60 min, the animals were placed on a hot plate maintained at 55 ± 0.5 °C. The reaction time was recorded as the time taken by the animals to […] or lick the fore or hind paw or jump off the plate.

[8] = cited from earlier work
[9] = tested on: COX-2; conditions: cited from earlier work

Structure (SMILES)	IC50 [1]	SI, COX-2 selectivity index (COX-1 IC50/COX-2 IC50) [1]	Peripheral analgesic activity (writhing) [2]	%Inhibition of paw oedema, 1h [3]	Paw thickness change mean ± SEM, 1h [3]	%Inhibition of paw oedema, 3h [3]	Paw thickness change mean ± SEM, 3h [3]	%Inhibition of paw oedema, 5h [3]	Paw thickness change mean ± SEM, 5h [3]	IC50 [4]	Histopathological findings in stomach [5]	melting point	Average number of ulcers [6]	Ulcer index [6]	Central analgesic activity (delay in latency time) [7]	Gastric ulceration side effect [8]	COX-2/COX-1 selectivity (SI) [9]
CN(C)c1ccc(-c2cc(-c3ccc(-n4cnnn4)cc3)[nH]c(=O)c2C#N)cc1 [Compound 5d, 6-[4-(1H-Tetrazol-1-yl)phenyl]-4-[4-(dimethylamino)phenyl]-2-oxo-1,2-dihydropyridine-3-carbonitrile]	0.45 µM	25.13	most active	71%	0.45 ± 0.10 mm	63%	0.61 ± 0.12 mm	43%	0.76 ± 0.15 mm	11.3 µM	Mucous degeneration in gastric glandular epithelium, thickening and hyalinosis of basement membrane, as well as eosinophilic infiltrations in submucosa	263 to 265 °C	1.25	1.50			
COc1ccc(-c2cc(-c3ccc(-n4cnnn4)cc3)[nH]c(=O)c2C#N)cc1OC [Compound 5e, 6-[4-(1H-Tetrazol-1-yl)phenyl]-4-(3,4-dimethoxyphenyl)-2-oxo-1,2-dihydropyridine-3-carbonitrile]		37.57	most active	71%	0.45 ± 0.16 mm	42%	0.98 ± 0.03 mm	49%	0.68 ± 0.08 mm	7.14 µM	affect only muscular layer of the stomach by causing corrugation and hyalinosis in some muscle bundles and reach to coagulative necrosis	272 to 274 °C	1.00	1.25	potent analgesic activities		
COc1cc(C2CC(c3ccc(-n4cnnn4)cc3)=NN2c2ccc(S(C)(=O)=O)cc2)cc(OC)c1OC (centres unmarked) [Compound 8b]		35.18		71%	0.45 ± 0.10 mm	48%	0.88 ± 0.09 mm	38%	0.83 ± 0.17 mm	3.87 µM	massive destruction of localised area of epithelium with formation of an erosion associated with hyalinosis and necrosis of muscular layer	241 to 243 °C	0.75	0.75	potent analgesic activities		
COc1ccc(C2CC(c3ccc(-n4cnnn4)cc3)=NN2c2ccc(S(N)(=O)=O)cc2)cc1OC (centres unmarked) [Compound 9a, 4-{3-[4-(1H-Tetrazol-1-yl)phenyl]-5-(3,4-dimethoxyphenyl)-4,5-dihydro-1H-pyrazol-1-yl)benzenesulphonamide]	0.33 µM	21.54	most active	75%	0.40 ± 0.00 mm	39%	1.03 ± 0.09 mm	19%	1.08 ± 0.20 mm	7.11 µM	sever congestion in blood capillaries and lymphocytic infiltration; also recorded: caused destructive effect on the mucosa and ulceration	226 to 228 °C	1.25	2.00			
O=C1OCC(c2ccc(-c3nnn[nH]3)cc2)=C1c1ccccc1 [VI]																lacked the side effect of gastric ulceration	2.11
Cc1ccc(-c2cc(C(F)(F)F)nn2-c2ccc(-c3nnn[nH]3)cc2)cc1 [V]																lacked the side effect of gastric ulceration	2.16

From paper PMC6445242, “Novel tetrazole and cyanamide derivatives as inhibitors of cyclooxygenase-2 enzyme: design, synthesis, anti-inflammatory evaluation, ulcerogenic liability and docking study” (Journal of Enzyme Inhibition and Medicinal Chemistry, 2017)
